Experimental data reported in patent US8476261B2, “Spirocyclic aminoquinolones as GSK-3 inhibitors” (Kyorin Pharmaceutical Co., Ltd., priority 2007, dated 2013).

Molecular target: T1, recombinant full-length human GSK3β (Homo sapiens, UniProt P49841)
T1 construct: recombinant full-length human GSK3β (Upstate); purchased Upstate
Assay: cell-free GSK3 kinase assay (KinaseGlo luciferase)
Format: biochemical
Conditions: Table 1; 5 μM ATP, 1 hour at 30 degrees Celsius
Method: Proceed to KinaseGlo luciferase reaction.
Following the completion of the kinase reaction an equal volume of KinaseGlo luciferase reagent (Promega) is added and the luminescence read using a luminescence plate reader within 5-10 minutes.

T1 sequence (P49841 whole entry): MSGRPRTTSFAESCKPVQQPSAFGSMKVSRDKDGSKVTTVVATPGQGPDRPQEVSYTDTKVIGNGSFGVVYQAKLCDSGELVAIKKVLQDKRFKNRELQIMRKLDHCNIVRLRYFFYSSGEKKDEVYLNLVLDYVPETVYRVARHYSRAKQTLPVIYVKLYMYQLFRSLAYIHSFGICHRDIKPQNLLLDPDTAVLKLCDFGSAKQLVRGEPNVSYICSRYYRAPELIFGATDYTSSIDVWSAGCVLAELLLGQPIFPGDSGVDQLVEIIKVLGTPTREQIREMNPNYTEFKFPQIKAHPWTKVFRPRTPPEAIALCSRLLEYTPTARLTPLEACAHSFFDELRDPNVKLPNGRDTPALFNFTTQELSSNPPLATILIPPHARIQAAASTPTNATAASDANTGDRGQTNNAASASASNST

Row | SMILES | IC50
1 | Nc1c(F)c(NCCCc2ccccn2)c2c3c1c(=O)c(-c1nnn[nH]1)cn3C1(CCCC1)CO2 [Compound 35] | 0.016 to 0.06 µM
2 | N#Cc1cn2c3c(c(NCCCc4ccccn4)c(F)c(N)c3c1=O)OCC21CCCC1 [Compound 36] | < 0.015 µM
3 | N#Cc1cn2c3c(c(NCCCn4ccnc4)c(F)c(N)c3c1=O)OCC21CCCC1 [Compound 37] | < 0.015 µM
4 | Cc1nn(C)c(C)c1CCCNc1c(F)c(N)c2c(=O)c(C#N)cn3c2c1OCC31CCCC1 [Compound 38] | < 0.015 µM
5 | COc1ccc(C(CCNc2c(F)c(N)c3c(=O)c(C(=O)O)cn4c3c2OCC42CCCC2)c2ccc(F)cc2)cc1 (stereo not shown) [Compound 39] | < 0.015 µM
6 | Nc1c(F)c(NCCCc2ccc(Cl)cc2)c2c3c1c(=O)c(C(=O)O)cn3C1(CCCC1)CO2 [Compound 40] | > 0.15 µM
7 | Cc1cc(C)n(CCCNc2c(F)c(N)c3c(=O)c(C(=O)O)cn4c3c2OCC42CCCC2)n1 [Compound 41] | 0.016 to 0.06 µM
8 | Cc1[nH]ncc1CCCNc1c(F)c(N)c2c(=O)c(C(=O)O)cn3c2c1OCC31CCCC1 [Compound 42] | < 0.015 µM
9 | N=C(NO)c1cn2c3c(c(NCCCn4ccnc4)c(F)c(N)c3c1=O)OCC21CCCC1 [Compound 43] | 0.061 to 0.15 µM
10 | Nc1c(F)c(NCCNc2ccccn2)c2c3c1c(=O)c(C(=O)O)cn3C1(CCC1)CO2 [Compound 44] | 0.016 to 0.06 µM
11 | Nc1c(F)c(NCCNc2ccccn2)c2c3c1c(=O)c(C(=O)O)cn3CC1(CCC1)O2 [Compound 45] | 0.061 to 0.15 µM
12 | Nc1c(F)c(NCCNc2ccccn2)c2c3c1c(=O)c(C(=O)O)cn3C1(CCO2)CC1 [Compound 46] | 0.016 to 0.06 µM
13 | Nc1c(F)c(NCCNc2ccccn2)c2c3c1c(=O)c(C(=O)O)cn3C1(CCC1)CCO2 [Compound 47] | 0.016 to 0.06 µM
14 | Nc1c(F)c(NCCNc2ccccn2)c2c3c1c(=O)c(C(=O)O)cn3C1(CCCC1)CCO2 [Compound 48] | > 0.15 µM
15 | CC1COc2c(NCCNc3ccccn3)c(F)c(N)c3c(=O)c(C(=O)O)cn(c23)C12CCC2 (stereo not shown) [Compound 49] | < 0.015 µM
16 | CC1CC2(CCC2)n2cc(C(=O)O)c(=O)c3c(N)c(F)c(NCCNc4ccccn4)c(c32)O1 (stereo not shown) [Compound 50] | > 0.15 µM
17 | Nc1c(F)c(NCCNc2ccccn2)c2c3c1c(=O)c(C(=O)O)cn3CC1(CCC1)CO2 [Compound 51] | 0.061 to 0.15 µM
18 | Nc1c(F)c(NCCNc2ccccn2)c2c3c1c(=O)c(C(=O)O)cn3CC1(CC1)CO2 [Compound 52] | > 0.15 µM
19 | Nc1c(F)c(NCCNc2ccccn2)c2c3c1c(=O)c(C(=O)O)cn3C1(CCC1)CCN2 [Compound 53] | 0.016 to 0.06 µM

Row | SMILES | IC50
20 | COc1ccc(CNc2c(F)c(N)c3c(=O)c(C(=O)O)cn4c3c2OCCC42CCC2)cc1 [Compound 55] | 0.061 to 0.15 µM
21 | Nc1c(F)c(NCCCc2ccccn2)c2c3c1c(=O)c(C(=O)O)cn3C1(CCC1)CCO2 [Compound 56] | < 0.015 µM
22 | CCN(CCCNc1c(F)c(N)c2c(=O)c(C(=O)O)cn3c2c1OCCC31CCC1)c1ccccc1 [Compound 57] | 0.016 to 0.06 µM
23 | Nc1c(F)c(NCCNC(=O)c2ccccn2)c2c3c1c(=O)c(C(=O)O)cn3C1(CCC1)CCO2 [Compound 58] | 0.016 to 0.06 µM
24 | Nc1c(F)c(NCCCc2ccc(F)cc2)c2c3c1c(=O)c(C(=O)O)cn3C1(CCC1)CCO2 [Compound 59] | < 0.015 µM
25 | Nc1c(F)c(NCCCn2ccnc2)c2c3c1c(=O)c(C(=O)O)cn3C1(CCC1)CCO2 [Compound 60] | < 0.015 µM
26 | Nc1nc(NCCNc2c(F)c(N)c3c(=O)c(C(=O)O)cn4c3c2OCCC42CCC2)ccc1[N+](=O)[O-] [Compound 61] | 0.061 to 0.15 µM
27 | Nc1c(F)c(NC2CCN(c3ccccn3)C2)c2c3c1c(=O)c(C(=O)O)cn3C1(CCC1)CCO2 (stereo not shown) [Compound 62] | > 0.15 µM
28 | Nc1c(F)c(N[C@H]2C[C@H]2Cc2ccccn2)c2c3c1c(=O)c(C(=O)O)cn3C1(CCCC1)CO2 [Compound 63] | > 0.15 µM
29 | Nc1c(F)c(N[C@@H]2C[C@H]2Cc2ccccn2)c2c3c1c(=O)c(C(=O)O)cn3C1(CCCC1)CO2 [Compound 64] | 0.016 to 0.06 µM
30 | Nc1c(F)c(NCCCc2ccccc2)c2c3c1c(=O)c(C(=O)O)cn3C1(CCCC1)CO2 [Compound 65] | < 0.015 µM
31 | Nc1c(F)c(NCCOc2ccccc2)c2c3c1c(=O)c(C(=O)O)cn3C1(CCCC1)CO2 [Compound 66] | > 0.15 µM
32 | CC(C)c1ccc(OCCNc2c(F)c(N)c3c(=O)c(C(=O)O)cn4c3c2OCC42CCCC2)cc1 [Compound 67] | > 0.15 µM
33 | Nc1c(F)c(NCCNC(=O)c2ccccn2)c2c3c1c(=O)c(C(=O)O)cn3C1(CCCC1)CO2 [Compound 68] | 0.016 to 0.06 µM
34 | COc1cccc(CCCNc2c(F)c(N)c3c(=O)c(C(=O)O)cn4c3c2OCC42CCCC2)c1 [Compound 69] | < 0.015 µM
35 | Nc1c(F)c(NCCCn2cnc3ccccc32)c2c3c1c(=O)c(C(=O)O)cn3C1(CCCC1)CO2 [Compound 70] | < 0.015 µM
36 | Nc1c(F)c(NCCN2CCC(c3ccccc3)C2)c2c3c1c(=O)c(C(=O)O)cn3C1(CCCC1)CO2 (stereo not shown) [Compound 71] | > 0.15 µM
37 | Nc1c(F)c(NCCC(c2ccccc2)c2ccc3c(c2)OCO3)c2c3c1c(=O)c(C(=O)O)cn3C1(CCCC1)CO2 (stereo not shown) [Compound 72] | > 0.15 µM
